Data reported in article PMC3991664, “Growth Inhibitory, Bactericidal, and Morphostructural Effects of Dehydrocostus Lactone from Magnolia sieboldii Leaves on Antibiotic-Susceptible and -Resistant Strains of Helicobacter pylori” (PLoS ONE, 2014).

Target: T1, urease (UreB subunit) (Helicobacter pylori, UniProt P69996)
T1 construct: native crude urease of H. pylori ATCC 43504 (UreA and UreB subunits); with UreA (urease subunit)
Experiment: urease activity inhibition in crude urease preparation, indophenol (ammonia release) assay; Western blot of subunits
Assay type: biochemical

T1 sequence (P69996 whole entry): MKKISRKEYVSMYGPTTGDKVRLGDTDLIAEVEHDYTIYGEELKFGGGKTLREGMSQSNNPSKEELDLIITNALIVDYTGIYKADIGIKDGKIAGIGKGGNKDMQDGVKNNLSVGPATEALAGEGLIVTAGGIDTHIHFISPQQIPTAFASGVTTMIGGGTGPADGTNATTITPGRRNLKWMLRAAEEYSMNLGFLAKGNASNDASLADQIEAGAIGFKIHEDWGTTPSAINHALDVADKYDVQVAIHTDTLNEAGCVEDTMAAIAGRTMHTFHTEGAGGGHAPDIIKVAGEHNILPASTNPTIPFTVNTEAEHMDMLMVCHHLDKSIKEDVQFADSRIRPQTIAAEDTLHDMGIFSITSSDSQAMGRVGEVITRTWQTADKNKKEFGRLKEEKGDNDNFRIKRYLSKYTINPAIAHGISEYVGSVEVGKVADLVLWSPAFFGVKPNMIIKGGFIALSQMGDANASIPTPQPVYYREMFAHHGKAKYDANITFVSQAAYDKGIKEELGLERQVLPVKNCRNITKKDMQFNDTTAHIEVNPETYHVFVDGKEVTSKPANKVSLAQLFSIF

For O=C(O[C@@H]1Cc2c(O)cc(O)cc2O[C@@H]1c1cc(O)c(O)c(O)c1)c1cc(O)c(O)c(O)c1 [(–)-epigallocatechin gallate], which IC50 is on record?
Its IC50 is 30 µM.
